# Data reported in US8784856B2, “Meadowfoam-based bioherbicide products” (The State of Oregon Acting by and Through the State Boad of …, priority 2007, dated 2014).
# “Also recorded” adds a separate entry of the source.
# Experiments:
# Wheat [1] = conditions: in vivo; cited from earlier work
# fungi = conditions: cited from earlier work
# [2] = tested on: potato cyst Nematode (Globodera rostochiensis Ct. Woll); conditions: in vivo; cited from earlier work
# [3] = tested on: root lesion nematode (Pratylenchus neglectus); conditions: in vivo; cited from earlier work
# [4] = tested on: postharvest fruit pathogens; conditions: cited from earlier work
# [5] = tested on: downy brome (Bromus tectorum) seeds; experiment: Assay for herbicidal activity: downy brome seed germination in soil; type: in vivo; conditions: for inhibition of downy brome germination at the highest concentration tested: 0.89 mg g^−1, FIG. 11; for effectiveness in inhibiting downy brome germination, in words: FIG. 11, comparison of compounds 1-4; for activity as seed germination inhibitors (downy brome): compared with MBITC, 82 hours and 168 hours, FIG. 8
# Method: Assay for herbicidal activity. About 45 g of clean soil was weighed into 10-cm diameter Petri dishes. For germination testing of individual compounds (1-4), 15.0 mL of test solution was added to each dish. Glucolimanthin 1 (GLN) was dissolved in water and compounds 2-4 in ethanol. The ethanolic solutions were applied to the dishes, allowed to evaporate overnight in a hood, and then 15 mL of water was added to the dishes. Meal products were mixed with soil, followed by the addition of 15 mL of water. Fifteen seeds of Bromus tectorum were placed in concentric circles within each dish. Petri dishes with lids were placed in an incubator at 20° C. during day time (8 hrs) and at 15° C. at night time (16 hrs) for 7 days. Germination was recorded as root emergence.
# [6] = Degradation of GLN in aqueous FeSO4 solution (HPLC); type: physicochemical; conditions: 1 mM GLN with 10 mM FeSO4 at room temperature; FIG. 3B
# Description: HPLC. The HPLC equipment consisted of a Waters Delta 600 solvent delivery system, a Waters 717 plus Autosampler, a Waters 2996 photodiode array detector, a Waters 600 controller and a data acquisition/processing computer with Empower™ software (Waters, Milford, Mass.). In HPLC system 1, separations were achieved on a reverse-phase Lichrosphere 5 μm C18 column (4×250 mm, Phenomenex, Torrance, Calif.). The HPLC solvents were 0.1% aqueous trifluoroacetic acid (solvent A) and MeCN (solvent B). A linear solvent gradient was employed starting from 5% solvent B in solvent A to 100% B over 30 min at a flow rate of 1.0 mL/min. After returning to the starting conditions in 1 min, the column was equilibrated for 10 min before the next injection. The injection volume was 20 μL. On-line UV spectra were recorded in the range 220-500 nm and the λ274 nm trace was used for calculation of peak areas. Analyte concentrations were determined from calibration curves constructed for each analyte.
# [7] = tested on: velvetleaf (Abutilon theophrasti); conditions: in vivo; cited from earlier work
# Wheat [8] = conditions: in vivo; cited from earlier work; remark: listed apart in the source
# [9] = tested on: fall armyworm (Lepidoptera: Noctuidae); conditions: compared with benzyl ITC and synthetic analogs; cited from earlier work
# Aphamyces euteiches = conditions: cited from earlier work
# [10] = tested on: velvetleaf, sicklepod, milo, and pitted morning glory; conditions: formulated as granules; all weed types; cited from earlier work
# [11] = tested on: benzo[a]pyrene-induced stomach tumors; conditions: mice dosed with test compound; cited from earlier work
# Helicobacter pylori = conditions: cited from earlier work
# [12] = tested on: human retinal pigment epithelial cells, keratinocytes, and mouse leukemia cells; conditions: cited from earlier work
# [13] = tested on: skin damage by UV radiation; conditions: human subjects, topically applied; cited from earlier work
# phase 2 enzymes = conditions: after treatment; cited from earlier work
# [14] = tested on: phase II enzymes (e.g., NAD(P)H:quinone reductase); conditions: cited from earlier work
smiles,measurement,setting,value
S=C=NCCc1ccccc1 [2-phenylethyl ITC],order of effectiveness against wheat,Wheat [1],2-phenylethyl ITC>allyl ITC>benzyl ITC
same,activity against fungi,fungi,good activity
same,activity on potato cyst nematode,[2],performed well
same,effect on root lesion nematode,[3],suppression
C=CCCN=C=S [3-butenyl ITC],activity against spore germination,[4],lower activity
Oc1ccc(CN=C=S)cc1 [4-hyxdroxybenzl],activity against spore germination,[4],equal
"COc1cccc(C/C(=N/OS(=O)(=O)O)S[C@@H]2O[C@H](CO)[C@@H](O)[C@H](O)[C@H]2O)c1 [GLN, glucolimnanthin]",inhibition of downy brome germination at the highest concentration tested,[5],only slightly inhibited
same,"effectiveness in inhibiting downy brome germination, in words",[5],least effective
same,effect of GLN on downy brome seed germination,"[5]; levels corresponding to those found in MSM (0.4 mg GLN per g soil), 7 days, FIG. 7",no germination inhibitory activity; also recorded: no effect; also recorded: No difference
same,degradation of GLN,[6],did not result in significant degradation
"COc1cccc(CN=C=S)c1 [MBITC, 3-Methoxybenzyl isothiocyanate]",inhibition of downy brome germination at the highest concentration tested,[5],failed to completely inhibit
same,"effectiveness in inhibiting downy brome germination, in words",[5],not as effective
same,activity as seed germination inhibitors (downy brome),[5],moderately active
same,seed germination inhibitory / allelopathic activity against velvetleaf,[7],greater activity
same,seed germination inhibitory / allelopathic activity against wheat,Wheat [8],greater activity
same,effectiveness against armyworm,[9],more effective
"COc1cccc(CC#N)c1 [MPAN, 3-Methoxyphenylacetonitrile]",inhibition of downy brome germination at the highest concentration tested,[5],completely inhibiting
same,"effectiveness in inhibiting downy brome germination, in words",[5],most effective
same,activity as seed germination inhibitors (downy brome),[5],more active
same,seed germination inhibitory / allelopathic activity against velvetleaf,[7],seed germination inhibitory effects
same,seed germination inhibitory / allelopathic activity against wheat,Wheat [8],seed germination inhibitory effects
C=CCN=C=S [allyl ITC],order of effectiveness against wheat,Wheat [1],2-phenylethyl ITC>allyl ITC>benzyl ITC
same,activity against spore germination,[4],equal
same,performance against pathogen causing pea root rot,Aphamyces euteiches,performed well
same,activity on potato cyst nematode,[2],performed well
S=C=NCc1ccccc1 [benzyl ITC],order of effectiveness against wheat,Wheat [1],2-phenylethyl ITC>allyl ITC>benzyl ITC
same,inhibition of weed germination,[10],inhibition of germination
same,activity against spore germination,[4],lower activity
same,activity against fungi,fungi,good activity
same,activity on potato cyst nematode,[2],performed well
CN=C=S [methyl ITC],performance against pathogen causing pea root rot,Aphamyces euteiches,performed well
"C[S+]([O-])CCCCN=C=S (stereo not shown) [sulforaphane, 4-methylsulfinylbuthyl ITC]",effect on benzo[a]pyrene-induced stomach tumors,[11],blocked
same,antibacterial properties against Helicobacter pylori,Helicobacter pylori,bacteriostatic and bactericidal properties
same,glutathione after treatment,[12],increase
same,protection of cells against oxidative damage,[12],powerful and prolonged protection
same,erythema and inflammation induced by UV radiation,[13],reduced
same,phase 2 enzymes in mouse and human skin,phase 2 enzymes,Up-regulation
same,induction of phase II enzymes,[14],high activity
CS/C=C/CCN=C=S [trans-4-methylthio-3-butenyl ITC],activity against spore germination,[4],equal
same,activity against fungi,fungi,good activity
